pKi: −log10 of the molar value. Where a name gives a salt, the structure may show the parent alone.

What is called pKi is −log10 of the Ki, conventionally taken in molar units. A lower pKi goes with a high Ki.

Sequence of HPK1 (Q92918 1-346): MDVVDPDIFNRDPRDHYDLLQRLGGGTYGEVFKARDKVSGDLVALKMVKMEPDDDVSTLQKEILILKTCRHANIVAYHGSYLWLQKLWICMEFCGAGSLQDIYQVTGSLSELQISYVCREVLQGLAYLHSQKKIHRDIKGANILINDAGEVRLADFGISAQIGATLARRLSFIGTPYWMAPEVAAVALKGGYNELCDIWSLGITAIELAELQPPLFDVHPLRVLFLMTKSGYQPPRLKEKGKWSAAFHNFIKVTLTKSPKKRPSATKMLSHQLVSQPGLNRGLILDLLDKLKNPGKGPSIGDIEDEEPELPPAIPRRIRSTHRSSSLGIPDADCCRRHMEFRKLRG

For this assay, the target named is HPK1 (Homo sapiens (Human), UniProt Q92918). In words: HPK Lantha Binding Assay (TR-FRET, Tracer-222 / Eu-Anti-GST Ab). The conditions noted are these: 2 nM HPK1, 2 nM Eu-Anti-GST Ab, 15 nM Tracer222, 60 min incubation; Morrison ki fit. The procedure:
Methods for Biological evaluation to assess compound inhibition of HPK-1:
I. Compound Dilution: • 1. Prepare 12.5 uL/well of 5 mM of compounds (100×) to column 2 and column 13 & 10 ul/well DMSO in column 3-12, 14-23 and well A1-H1, I24-P24 of compound plate with Bravo. For reference compound, the top concentration is 1 mM • 2. Add 10 ul 2 mM staurosporine in well J1-P1 and A24-H24 • 3. Perform 11 point 5-fold compound serial dilution with Bravo • a. transfer 2.5 ul compounds from column 2 and column 13 to 10 ul of DMSO in column 3 and column 14 & so on • 4. Centrifuge the compound plate at 2500 rpm for 1 min • 5. Transfer 80 nl compounds into assay plate using Echo. One compound plate makes two assay plates • 6. Seal the assay plate and store in N2 cabinet.
2 nM HPK1, 2 nM Eu-Anti-GST Ab, 15 nM Tracer222, 60 min incubation
III. HPK Lantha Binding Assay: • 1. Add 4 ul 2×HPK1 and Eu-anti-GST antibody into each well of assay plate using Multidrop • 2. Incubate at 23 C incubator for 1 h • 3. Add 4 ul 2× Tracer-222 into each well of assay plate using Multidrop • 4. Incubate at 23 C incubator for 1 h • 5. Read the assay plate in Envision • a. TR_FRET, 340 ex/615 and 665 em • b. 100 usec Delay, 200 usec integration
IV. Analysis: • 1. Compound Ki was analyzed using Morrison ki fit model in XL-fit • a. fit=(1−((((E+x)+(Ki*(1[…](S/Kd))))−(((((E+x)+(Ki*(1+(S/Kd))))^2)−((4*E)*x))^0.5))/(2*E))) • res=(y-fit) • b. Parameters: • E=enzyme concentration • S=Tracer222 concentration, Kd=Tracer222 Kd • All in the same units (uM)
(In general: In TR-FRET formats the signal depends on donor and acceptor labels being close together.)
`CN(C)C(=O)c1c(N)ccc(-c2cnc3[nH]c(Cl)c(CCO)c3c2Cl)c1F` [Compound 1-26, 6-amino-3-(2,4-dichloro-3-(2-hydroxyethyl)-1H-pyrrolo[2,3-b]pyridin-5-yl)-2-fluoro-N,N-dimethylbenzamide] had a pKi of 7.92.

Consider `CN(C)C(=O)c1cc(-c2cnc3[nH]c(Cl)c(CCO)c3c2Cl)ccc1N` [Compound 1-22, 2-amino-5-(2,4-dichloro-3-(2-hydroxyethyl)-1H-pyrrolo[2,3-b]pyridin-5-yl)-N,N-dimethylbenzamide], for which the negative-log Ki (pKi) is 8.03.

On to `CCc1c(F)[nH]c2ncc(-c3cccc(N4CCOCC4=O)c3)cc12` [Compound 1-18, 4-[3-(3-Ethyl-2-fluoro-1H-pyrrolo[2,3-b]pyridin-5-yl)phenyl]morpholin-3-one], for which the pKi is 8.40.

The compound `CCc1c(Cl)[nH]c2ncc(-c3ccc(C4NCCNC4=O)cc3)cc12` (stereo not drawn) [Compound 1-24, 3-(4-(2-chloro-3-ethyl-1H-pyrrolo[2,3-b]pyridin-5-yl)phenyl)piperazin-2-one] showed a negative logarithm of the Ki (pKi) of 7.49.

As for `CCc1c(F)[nH]c2ncc(-c3ccc(N)c(C(=O)N(C)C)c3F)cc12` [Compound 1-19, 6-Amino-3-(3-ethyl-2-fluoro-1H-pyrrolo[2,3-b]pyridin-5-yl)-2-fluoro-N,N-dimethylbenzamide], the pKi is 9.00.

As to `Cc1[nH]c2ncc(-c3cccc(N4CCOCC4CO)n3)cc2c1C(F)(F)F` (stereo not drawn) [Compound 1-15, (4-(6-(2-methyl-3-(trifluoromethyl)-1H-pyrrolo[2,3-b]pyridin-5-yl)pyridin-2-yl)morpholin-3-yl)methanol], the pKi is 7.12.

As to `CCc1c(Cl)[nH]c2ncc(-c3ccc(N)c(C(=O)N(C)C)c3)cc12` [Compound 1-3, 2-amino-5-(2-chloro-3-ethyl-1H-pyrrolo[2,3-b]pyridin-5-yl)-N,N-dimethylbenzamide], the pKi is 9.05.

In turn, `Cc1[nH]c2ncc(-c3ccc(N)c(C(=O)N(C)C)n3)cc2c1C(F)(F)F` [Compound 1-9, 3-amino-N,N-dimethyl-6-(2-methyl-3-(trifluoromethyl)-1H-pyrrolo[2,3-b]pyridin-5-yl)picolinamide] showed a pKi of 7.12.

Regarding `CCc1c(Cl)[nH]c2ncc(-c3cccc(N4CCOCC4=O)n3)cc12` [Compound 1-5, 4-(6-(2-chloro-3-ethyl-1H-pyrrolo[2,3-b]pyridin-5-yl)pyridin-2-yl)morpholin-3-one], the pKi is 8.70.

Turning to `CCc1c(C)[nH]c2ncc(-c3ccc(N)c(C(=O)N(C)C)c3)cc12` [Compound 1-4, 2-amino-5-(3-ethyl-2-methyl-1H-pyrrolo[2,3-b]pyridin-5-yl)-N,N-dimethylbenzamide], the pKi was 7.82.

With `CCc1c(Cl)[nH]c2ncc(-c3ccnc(N4CCOC4=O)n3)cc12` [Compound 1-7, 3-(4-(2-chloro-3-ethyl-1H-pyrrolo[2,3-b]pyridin-5-yl)pyrimidin-2-yl)oxazolidin-2-one formate], the negative-log Ki (pKi) was 7.48.

The compound `COCc1c(Cl)[nH]c2ncc(-c3ccc(N)c(C(=O)N(C)C)c3F)cc12` [Compound 1-23, 6-amino-3-(2-chloro-3-(methoxymethyl)-1H-pyrrolo[2,3-b]pyridin-5-yl)-2-fluoro-N,N-dimethylbenzamide] had a negative logarithm of the Ki (pKi) of 6.80.

`CCc1c(Cl)[nH]c2ncc(-c3cccc(C4NCCNC4=O)c3)cc12` (stereo not drawn) [Compound 1-25, 3-(3-(2-chloro-3-ethyl-1H-pyrrolo[2,3-b]pyridin-5-yl)phenyl)piperazin-2-one] gave a negative logarithm of the Ki (pKi) of 7.51.

For `CCc1c(Cl)[nH]c2ncc(-c3ccc(N)c(C(=O)N4CC(O)C4)n3)cc12` [Compound 1-6, (3-amino-6-(2-chloro-3-ethyl-1H-pyrrolo[2,3-b]pyridin-5-yl)pyridin-2-yl)(3-hydroxyazetidin-1-yl)methanone formate], the pKi was 7.82.

Regarding `O=C1COCCN1c1cccc(-c2cnc3[nH]c(Cl)c(CCF)c3c2)c1` [Compound 1-14, 4-(3-(2-chloro-3-(2-fluoroethyl)-1H-pyrrolo[2,3-b]pyridin-5-yl)phenyl) morpholin-3-one], the negative logarithm of the Ki (pKi) is 7.77.

On to `Cc1[nH]c2ncc(-c3ccc(N)c(N4CCOCC4=O)n3)cc2c1C(F)(F)F` [Compound 1-11, 4-(3-amino-6-(2-methyl-3-(trifluoromethyl)-1H-pyrrolo[2,3-b]pyridin-5-yl)pyridin-2-yl)morpholin-3-one], for which the pKi was 7.89.

`Cc1[nH]c2ncc(-c3cccc(N4CCOCC4=O)n3)cc2c1C(F)(F)F` [Compound 1-8, 4-(6-(2-methyl-3-(trifluoromethyl)-1H-pyrrolo[2,3-b]pyridin-5-yl)pyridin-2-yl)morpholin-3-one] had a pKi of 7.17.

As to `O=C1COCCN1c1cccc(-c2cnc3[nH]c(CO)c(C(F)(F)F)c3c2)c1` [Compound 1-13, 4-(3-(2-(hydroxymethyl)-3-(trifluoromethyl)-1H-pyrrolo[2,3-b]pyridin-5-yl)phenyl)morpholin-3-one], the pKi is 5.77.

In the case of `CCc1c(Cl)[nH]c2ncc(-c3cccc(N4CCOCC4=O)c3)cc12` [Compound 1-1, 4-(3-(2-chloro-3-ethyl-1H-pyrrolo[2,3]pyridin-5-yl)phenyl)morpholin-3-one], the negative logarithm of the Ki (pKi) is 8.70.

Take `Cc1[nH]c2ncc(-c3ccc(N)c(C(=O)N(C)C)c3)cc2c1C(F)(F)F` [Compound 1-10, 2-amino-N,N-dimethyl-5-(2-methyl-3-(trifluoromethyl)-1H-pyrrolo[2,3-b]pyridin-5-yl)benzamide]: the pKi is 7.49.

Regarding `O=C1COCCN1c1cccc(-c2cnc3[nH]c(Cl)c(CCO)c3c2)c1` [Compound 1-21, 4-{3-[2-Chloro-3-(2-hydroxyethyl)-1H-pyrrolo[2,3-b]pyridin-5-yl]phenyl}morpholin-3-one], the pKi was 7.05.

`CCc1c(Cl)[nH]c2ncc(-c3ccc(N)c(C(=O)N(C)C)n3)cc12` [Compound 1-2, 3-amino-6-(2-chloro-3-ethyl-1H-pyrrolo[2,3-b]pyridin-5-yl)-N,N-dimethylpicolinamide] had a pKi of 8.52.

Regarding `Cc1[nH]c2ncc(-c3cc(N)cc(-c4ncccc4CO)c3)cc2c1C(F)(F)F` [Compound 1-12, (2-(3-amino-5-(2-methyl-3-(trifluoromethyl)-1H-pyrrolo[2,3-b]pyridin-5-yl)phenyl)pyridin-3-yl)methanol], the negative-log Ki (pKi) was 7.62.

On to `Cc1cc2cc(-c3ccc(N)c(C(=O)N(C)C)c3)cnc2[nH]1` [Compound 1-17, 2-amino-N,N-dimethyl-5-(2-methyl-1H-pyrrolo[2,3-b]pyridin-5-yl)benzamide], for which the negative-log Ki (pKi) was 5.89.

`CN(C)C(=O)c1c(N)ccc(-c2cnc3[nH]c(Cl)c(CCO)c3c2)c1F` [Compound 1-20, 6-Amino-3-[2-chloro-3-(2-hydroxyethyl)-1H-pyrrolo[2,3-b]pyridin-5-yl]-2-fluoro-N,N-dimethylbenzamide] gave a negative logarithm of the Ki (pKi) of 7.77.

Consider `Cc1[nH]c2ncc(-c3cccc(N4CCCNC4=O)n3)cc2c1C(F)(F)F` [Compound 1-16, 1-(6-(2-methyl-3-(trifluoromethyl)-1H-pyrrolo[2,3-b]pyridin-5-yl)pyridin-2-yl)tetrahydropyrimidin-2(1H)-one], for which the pKi was 7.09.

Compound `CCc1c(Cl)[nH]c2ncc(-c3ccc(N)c(C(=O)N(C)C)c3F)cc12` [Compound 1-27, 6-amino-3-(2-chloro-3-ethyl-1H-pyrrolo[2,3-b]pyridin-5-yl)-2-fluoro-N,N-dimethylbenzamide] gave a negative logarithm of the Ki (pKi) of 8.57.

The values above are taken from patent US10952995B2, “Azaindoles as inhibitors of HPK1” (Genentech, Inc., priority 2017, dated 2021).
